# Experimental data from patent US11079373B2, “Biomarker detection methods and systems and kits for practicing same” (The Board of Trustees of the Leland Stanford Junior …, priority 2015, dated 2021).
# What was measured:
# Format in all cases: cell-based, human
# [1] = system: peripheral blood mononuclear cells (PBMC); assay: FlowSpot IFNγ secretion in situ detection, PBMC co-cultured with IFNγ capture microparticles in presence of PHA; conditions: 16 h; for FLOWSPOT SPOTS (n) (IFNγ): percent positive × 7,000
# Description: (§1) One hundred thousand peripheral blood mononuclear cells (0.1×10^6 PBMC) or purified lymphocytes were mixed with 7,000 capture microspheres and distributed into each assay well of a 96-well U bottom plate. The plate was centrifuged at 1,500×g for 5 min and the supernatant was removed. The pellet of cells and capture beads were resuspended in 200 μL culture medium with or without testing reagent(s) or stimulus(i), then the plate was incubated in a humidified 37° C., 5% CO2 incubator for 10 min to 7 days (usually 2 to 16 h). After incubation, the cells were lysed in NP-40 lysis buffer (10 mM Tris-HCl, pH 7.4, 10 mM NaCl, 3 mM MgCl2, 0.5% NP-40). The capture beads were washed twice with 3% HBSA (3% BSA in HBSS) and incubated with 50 μL PE-labeled anti-Bio-marker for 60 min at room temperature. After two washes of 3% HBSA, the beads were acquired and analyzed on a BD FACSCanto II flow cytometer. The number of positive spots was calculated based on the following formulas: Percent positive spots (%)=Number of positive particles acquired/Total number of particles acquired×100 Total number of positive spots=Percent positive spots (%)×7,000 (where 7,000=total number of particles/test)
# In parallel, 0.1×10^6 PBMC cells from the same donor were co-cultured with 7,000 IFNγ capture microparticles in a humidified 37° C., 5% CO2 incubator for 16 h in the presence of PHA at various concentrations. After incubation, the cells were lysed in NP-40 lysis buffer (10 mM Tris-HCl, pH 7.4, 10 mM NaCl, 3 mM MgCl2, 0.5% NP-40). The capture beads were washed twice with 3% HBSA (3% BSA in HBSS) and incubated with 50 μL PE-labeled anti-IFNγ for 60 min at room temperature. After an additional two washes of 3% HBSA, the beads were acquired and analyzed on a BD FACSCanto II flow cytometer.
# [2] = system: peripheral blood mononuclear cells (PBMC); assay: Cytometric Bead Array (CBA) IFNγ secretion detection in culture media of PHA-treated PBMC; conditions: 16 h, culture medium
# Description: One hundred thousand peripheral blood mononuclear cells (0.1×10^6 PBMC) in 100 μL of 10% FBS RPMI 1640 containing varying concentrations of PHA were seeded in each well in a 96 well plate and incubated in a humidified 37° C., 5% CO2 incubator for 16 h. The plate was centrifuged at 2,500 g for 3 min and 50 μL culture medium of each well was carefully transferred into each corresponding test well in a new 96 well plate. After adding 50 μL INFγ capture beads (BD Biosciences; Cat. 558269) into each well, the plate was incubated at room temperature (RT) for 60 min with constant shaking on a plate shaker. After adding 50 μL INFγ PE-detection reagents (BD Biosciences; Cat. 51-9004031), the plate was continually incubated at RT for additional 2 h. The beads were then washed three times with 200 μL wash buffer (0.05% Tween-20 in PBS) and acquired on a BD FACSCanto II flow cytometer. The concentrations of INFγ in the culture media from each well were extrapolated from the standard curve generated from a series of known INFγ standards in the same batch of CBA assay.
# PBMC cells = assay: Three-color IFNγ/IL-2/GrB detection by […]; conditions: PHA 20 ug/mL, 16 h
# C.T.L. cells = assay: Two-color IFNγ/IL-2 detection by FLOWSPOT; conditions: PHA at various concentrations, 16 h
# Description: as §1
# One hundred thousand C.T.L. cells were co-cultured with a mix of IFNγ and IL-2 capture microparticles (7,000 each with different fluorescent ID codes) for 16 h in the presence of PHA at various concentrations.
substance,measurement,setting,value
phytohaemagglutinin [PHA],FLOWSPOT MFI (IFNγ),[1]; PHA 0.5 μg/mL,166
same,FLOWSPOT % Positive Spot (IFNγ),"[1]; PHA 0.5 μg/mL, 0.1×10^6 PBMC, 7,000 microparticles",24%
same,FLOWSPOT SPOTS (n) (IFNγ),[1]; PHA 0.5 μg/mL,1680 n
same,FLOWSPOT % Positive Spot (IFNγ),[1]; PHA 1 μg/mL,35%
same,FLOWSPOT MFI (IFNγ),[1]; PHA 1 μg/mL,659
same,FLOWSPOT SPOTS (n) (IFNγ),[1]; PHA 1 μg/mL,2450 n
same,FLOWSPOT % Positive Spot (IFNγ),[1]; PHA 2.5 μg/mL,43%
same,FLOWSPOT MFI (IFNγ),[1]; PHA 2.5 μg/mL,4050
same,FLOWSPOT SPOTS (n) (IFNγ),[1]; PHA 2.5 μg/mL,3010 n
same,FLOWSPOT % Positive Spot (IFNγ),[1]; PHA 5 μg/mL,45%
same,FLOWSPOT MFI (IFNγ),[1]; PHA 5 μg/mL,9541
same,FLOWSPOT SPOTS (n) (IFNγ),[1]; PHA 5 μg/mL,3150 n
same,FLOWSPOT % Positive Spot (IFNγ),[1]; PHA 10 μg/mL,56%
same,FLOWSPOT MFI (IFNγ),[1]; PHA 10 μg/mL,19594
same,FLOWSPOT SPOTS (n) (IFNγ),[1]; PHA 10 μg/mL,3920 n
same,FLOWSPOT % Positive Spot (IFNγ),[1]; PHA 15 μg/mL,57%
same,FLOWSPOT MFI (IFNγ),[1]; PHA 15 μg/mL,21680
same,FLOWSPOT SPOTS (n) (IFNγ),[1]; PHA 15 μg/mL,3990 n
same,FLOWSPOT % Positive Spot (IFNγ),[1]; PHA 20 μg/mL,55%
same,FLOWSPOT MFI (IFNγ),[1]; PHA 20 μg/mL,22241
same,FLOWSPOT SPOTS (n) (IFNγ),[1]; PHA 20 μg/mL,3850 n
same,CBA IFNγ,"[2]; PHA 0.5 μg/mL, from standard curve",17 pg/mL
same,CBA IFNγ,[2]; PHA 1 μg/mL,36 pg/mL
same,CBA IFNγ,[2]; PHA 2.5 μg/mL,76 pg/mL
same,CBA IFNγ,[2]; PHA 5 μg/mL,174 pg/mL
same,CBA IFNγ,[2]; PHA 10 μg/mL,281 pg/mL
same,CBA IFNγ,[2]; PHA 15 μg/mL,344 pg/mL
same,CBA IFNγ,[2]; PHA 20 μg/mL,312 pg/mL
same,"median channel value (MCV), intensity of IFNγ secretion",PBMC cells,653
same,"median channel value (MCV), intensity of IL-2 secretion",PBMC cells,407
same,number of positive spots for GrB,PBMC cells,630 spots
same,number of positive spots for IFNγ,PBMC cells,"5,320 spots"
same,number of positive spots for IL-2,PBMC cells,"4,340 spots"
same,IFNγ response to PHA,C.T.L. cells,dose-dependent responses
same,IL-2 response to PHA,C.T.L. cells,dose-dependent responses
